Reference: ChEMBL document CHEMBL1201862, “PubChem BioAssay data set” (2004)
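Interpolation was linear, between the two tested concentrations surrounding the appropriate level; five concentrations were tested over 48 hours in 96-well plates. Abbreviation: GI50, concentration required for 50% inhibition of growth.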 Activity calls are given as the source filed them. Rule as the data show it: active = GI50 up to about 1.1 µM and inactive = higher.

Legend:
Test in all cases: NCI anticancer screen, dose series, 48 h
KM12 = test system: KM12
NCI-H23 = test system: NCI-H23
786-0 = test system: 786-0
SF-268 = test system: SF-268
OVCAR-8 = test system: OVCAR-8
SK-MEL-2 = test system: SK-MEL-2
DU-145 = test system: DU-145
Malme-3M = test system: Malme-3M
SK-MEL-5 = test system: SK-MEL-5
NCI-H226 = test system: NCI-H226
HCT-116 = test system: HCT-116
A549 = test system: A549
CCRF-CEM = test system: CCRF-CEM
U-251 = test system: U-251
ACHN = test system: ACHN
MOLT-4 = test system: MOLT-4
OVCAR-3 = test system: OVCAR-3
UO-31 = test system: UO-31
IGROV-1 = test system: IGROV-1
MCF7 = test system: MCF7
MDA-MB-231 = test system: MDA-MB-231
BT-549 = test system: BT-549
PC-3 = test system: PC-3
SK-OV-3 = test system: SK-OV-3
SN12C = test system: SN12C
T47D = test system: T47D
MDA-MB-435 = test system: MDA-MB-435
RPMI-8226 = test system: RPMI-8226
COLO 205 = test system: COLO 205
HCC 2998 = test system: HCC 2998
HOP-92 = test system: HOP-92
OVCAR-5 = test system: OVCAR-5
HCT-15 = test system: HCT-15
NCI-H460 = test system: NCI-H460
RXF 393 = test system: RXF 393
UACC-257 = test system: UACC-257
M14 = test system: M14
EKVX = test system: EKVX
MDA-N = test system: MDA-N
NCI-H522 = test system: NCI-H522
SF-539 = test system: SF-539
Hs-578T = test system: Hs-578T
A498 = test system: A498
SNB-75 = test system: SNB-75
SW-620 = test system: SW-620
CAKI-1 = test system: CAKI-1
SR = test system: SR
K562 = test system: K562
SF-295 = test system: SF-295
HOP-62 = test system: HOP-62
OVCAR-4 = test system: OVCAR-4
HT-29 = test system: HT-29
NCI/ADR-RES = test system: NCI/ADR-RES
SK-MEL-28 = test system: SK-MEL-28
LOX IMVI = test system: LOX IMVI
UACC-62 = test system: UACC-62
TK-10 = test system: TK-10
SNB-19 = test system: SNB-19

Measured: GI50

O=[N+]([O-])c1ccc(NN=C2c3ccccc3Cc3ccccc32)c([N+](=O)[O-])c1
6.43 µM: HCT-15
inactive: KM12 2.98 µM | NCI-H23 15 µM | 786-0 10.9 µM | SF-268 14.3 µM | OVCAR-8 45.8 µM | SK-MEL-2 3.44 µM | DU-145 > 30.4 µM | Malme-3M 3.39 µM | SK-MEL-5 4.27 µM | NCI-H226 29.6 µM | HCT-116 5.37 µM | A549 > 21.1 µM | CCRF-CEM 3.1 µM | U-251 4.5 µM | ACHN 17.7 µM | MOLT-4 6.87 µM | OVCAR-3 2.39 µM | UO-31 > 26.4 µM | IGROV-1 4.97 µM | MCF7 4.23 µM | MDA-MB-231 24.4 µM | BT-549 > 100 µM | PC-3 4.95 µM | SK-OV-3 7.74 µM | SN12C > 67.5 µM | T47D 35.8 µM | MDA-MB-435 1.79 µM | RPMI-8226 8.91 µM | COLO 205 4.52 µM | HCC 2998 6.41 µM | HOP-92 20.8 µM | OVCAR-5 12.3 µM | NCI-H460 3.91 µM | RXF 393 > 24.4 µM | UACC-257 6.35 µM | M14 5.81 µM | EKVX 5.37 µM | MDA-N 1.88 µM | NCI-H522 2.13 µM | SF-539 8.79 µM | Hs-578T 4.07 µM | A498 > 92 µM | SNB-75 4.59 µM | SW-620 5.85 µM | CAKI-1 9.51 µM | SR 2.07 µM | K562 4.32 µM | SF-295 3.71 µM | HOP-62 6.92 µM | OVCAR-4 13.3 µM | HT-29 2.88 µM | NCI/ADR-RES 4.82 µM | SK-MEL-28 > 81.1 µM | LOX IMVI 7.87 µM | UACC-62 5.38 µM | TK-10 > 100 µM

CNc1nc2n(CCO)c(-c3ccccc3)c(-c3ccccc3)nc-2c(=O)n1
> 50 µM: HCT-15
inactive: KM12 > 50 µM | NCI-H23 > 50 µM | 786-0 > 50 µM | SF-268 > 50 µM | OVCAR-8 > 50 µM | SK-MEL-2 > 50 µM | DU-145 > 50 µM | Malme-3M > 50 µM | SK-MEL-5 > 50 µM | NCI-H226 > 50 µM | HCT-116 > 50 µM | A549 > 50 µM | CCRF-CEM > 50 µM | U-251 > 50 µM | ACHN > 50 µM | MOLT-4 > 50 µM | OVCAR-3 14.8 µM | UO-31 > 50 µM | IGROV-1 > 50 µM | MCF7 > 50 µM | MDA-MB-231 > 50 µM | BT-549 > 50 µM | PC-3 > 50 µM | SK-OV-3 > 50 µM | SN12C > 50 µM | T47D > 50 µM | MDA-MB-435 > 50 µM | RPMI-8226 > 50 µM | COLO 205 > 50 µM | HCC 2998 > 50 µM | HOP-92 > 50 µM | OVCAR-5 > 50 µM | NCI-H460 > 50 µM | RXF 393 > 50 µM | UACC-257 > 50 µM | M14 > 50 µM | EKVX > 50 µM | MDA-N > 50 µM | NCI-H522 > 50 µM | SF-539 > 50 µM | Hs-578T > 50 µM | A498 > 50 µM | SNB-75 > 50 µM | SW-620 > 50 µM | CAKI-1 > 50 µM | SR > 50 µM | K562 > 50 µM | SF-295 > 50 µM | HOP-62 22.8 µM | OVCAR-4 > 50 µM | HT-29 > 50 µM | NCI/ADR-RES > 50 µM | SK-MEL-28 > 50 µM | SNB-19 > 50 µM | LOX IMVI > 50 µM | UACC-62 > 50 µM | TK-10 > 50 µM
